These results are taken from ChEMBL document CHEMBL2046335, “Synthesis and discovery of N-carbonylpyrrolidine- or N-sulfonylpyrrolidine-containing uracil derivatives as potent human deoxyuridine triphosphatase inhibitors” (J Med Chem, 2012).

The target in assay [1] is T1, Deoxyuridine 5'-triphosphate nucleotidohydrolase, mitochondrial (Homo sapiens, UniProt P33316).
T1 sequence (P33316 whole entry): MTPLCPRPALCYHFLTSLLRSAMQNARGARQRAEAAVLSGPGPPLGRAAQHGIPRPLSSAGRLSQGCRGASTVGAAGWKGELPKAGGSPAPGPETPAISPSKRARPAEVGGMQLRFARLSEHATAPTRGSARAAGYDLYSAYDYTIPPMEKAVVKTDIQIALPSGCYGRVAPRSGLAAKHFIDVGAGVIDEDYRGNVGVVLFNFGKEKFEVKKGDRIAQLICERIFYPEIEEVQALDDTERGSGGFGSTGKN
Description: Inhibition of human dUTPase using [5-3H]dUTP as substrate after 15 mins by HPLC analysis.

Assay [2] is described as follows: Competitive inhibition of Escherichia coli dUTPase.
The nature of assay [3]: Potentiation of antiproliferative activity of FdUrd against human HeLaS3 cells assessed as reduction in FdUrd T/C value by half after 24 hrs by crystal violet assay. It is filed as functional, cell-based. The conditions noted are these: HeLa S3, 24 h.
Assay [4] can be described thus: Antiproliferative activity against human HeLaS3 cells after 72 hrs by crystal violet assay. The conditions noted are these: HeLa S3, 72 h. The assay is classed as functional, cell-based.
The target in assay [5] is T1, Deoxyuridine 5'-triphosphate nucleotidohydrolase, mitochondrial. Description: Inhibition of human dUTPase.

As to `O=c1ccn([C@H]2C[C@H](O)[C@@H](COP(=O)(O)NP(=O)(O)OP(=O)(O)O)O2)c(=O)[nH]1`, the IC50 in assay [1] is 15 µM. In assay [2], this compound yielded a Ki of 5 µM.
For the compound `O=c1ccn(CCCS(=O)(=O)N2CCC[C@@H]2C(O)(c2ccccc2)c2ccccc2)c(=O)[nH]1`, inhibition in assay [1] was half-maximal at 0.32 µM (IC50). Besides, the EC50 in assay [3] was 0.3 µM; in assay [4], greater than 100 µM.
In the same order, the values of `O=C(CCCn1ccc(=O)[nH]c1=O)N1CCC[C@H]1C(O)(c1ccccc1)c1ccccc1` are 0.29 µM, 0.27 µM and greater than 100 µM.
Compound `O=c1ccn([C@H]2C[C@H](O)[C@@H](COP(=O)(O)CP(=O)(O)OP(=O)(O)OCc3ccccc3)O2)c(=O)[nH]1` came in with a Ki in assay [5] of 0.3 µM.
In assay [1], `CC(C)(C)NC(=O)CCCn1ccc(=O)[nH]c1=O` returned an IC50 of 97 µM.
As for `CC(C)(C)CC(C)(C)NC(=O)CCn1ccc(=O)[nH]c1=O`, in assay [1], the IC50 is greater than 30 µM.
Still for that read-out and setting: the same measure for `CCC(CC)(CC)NC(=O)CCn1ccc(=O)[nH]c1=O`: 22 µM; for `CC(C)(C)NC(=O)CCn1ccc(=O)[nH]c1=O`: greater than 30 µM.
Same read-out and setting: in the case of `O=C(CCn1ccc(=O)[nH]c1=O)N(Cc1ccccc1)Cc1ccccc1` it was greater than 30 µM.
The compound `O=C(CCn1ccc(=O)[nH]c1=O)NC(c1ccccc1)c1ccccc1` returned an IC50 in assay [1] greater than 30 µM.
The same measure, in the same setting: in the case of `O=C(CCn1ccc(=O)[nH]c1=O)NCC(c1ccccc1)c1ccccc1` it was greater than 30 µM.
The same measure, in the same setting: the same measure for `O=C(CCn1ccc(=O)[nH]c1=O)NCCC(c1ccccc1)c1ccccc1`: greater than 30 µM; for `O=C(CCn1ccc(=O)[nH]c1=O)N1CCC(Cc2ccccc2)CC1`: greater than 30 µM; for `CC(C)(NC(=O)CCn1ccc(=O)[nH]c1=O)C(O)(c1ccccc1)c1ccccc1`: 7.3 µM.
Consider `O=C(CCCn1ccc(=O)[nH]c1=O)Nc1ccccc1`, for which, in assay [1], the IC50 was greater than 30 µM.
In assay [1], `CC(C)(C)CC(C)(C)NC(=O)CCCn1ccc(=O)[nH]c1=O` yielded an IC50 of 30 µM.
In assay [1], `O=C(CCCn1ccc(=O)[nH]c1=O)NCc1ccccc1` yielded an IC50 greater than 30 µM.
The compound `CC(C)(Cc1ccccc1)NC(=O)CCCn1ccc(=O)[nH]c1=O` showed an IC50 in assay [1] greater than 30 µM.
Still for that read-out and setting: the same measure for `CC(C)(NC(=O)CCCn1ccc(=O)[nH]c1=O)c1ccccc1`: greater than 30 µM; for `CCC(CC)(CC)NC(=O)CCCn1ccc(=O)[nH]c1=O`: greater than 30 µM.
Take `O=C(CCCn1ccc(=O)[nH]c1=O)NC(c1ccccc1)c1ccccc1`: the IC50 in assay [1] is greater than 30 µM.
Still for that read-out and setting: in the case of `O=C(CCCn1ccc(=O)[nH]c1=O)NCC(c1ccccc1)c1ccccc1` it was 16 µM.
The compound `CC(C)(NC(=O)CCCn1ccc(=O)[nH]c1=O)C(O)(c1ccccc1)c1ccccc1` came in with an IC50 in assay [1] of 2.5 µM. The EC50 is 3 µM in assay [3] and greater than 100 µM in assay [4].
In the same order, the values of `CN(CC(c1ccccc1)c1ccccc1)C(=O)CCCn1ccc(=O)[nH]c1=O` are 1.3 µM, 1.2 µM and greater than 100 µM.
With `CC(C)(Cc1ccc2ccccc2c1)NC(=O)CCCn1ccc(=O)[nH]c1=O`, the IC50 in assay [1] is greater than 30 µM.
Still for that read-out and setting: in the case of `CC(C)(CCc1ccccc1)NC(=O)CCCn1ccc(=O)[nH]c1=O` it was 21 µM.
`CC(C)(CO)NC(=O)CCCn1ccc(=O)[nH]c1=O`: in assay [1], the IC50 is greater than 30 µM.
In assay [1], `CN(CC(O)(c1ccccc1)c1ccccc1)C(=O)CCCn1ccc(=O)[nH]c1=O` gave an IC50 of 1.1 µM.
`O=C(CCCn1ccc(=O)[nH]c1=O)N1CCC[C@@H]1C(O)(c1ccccc1)c1ccccc1` displayed an IC50 in assay [1] of 10 µM.
In assay [1], `O=C(CCCn1ccc(=O)[nH]c1=O)N1CCC[C@H]1C(O)(c1cccc(F)c1)c1cccc(F)c1` had an IC50 of 0.35 µM.
With `O=C(CCCn1ccc(=O)[nH]c1=O)N1CCC[C@H]1C(O)(c1ccc(F)cc1)c1ccc(F)cc1`, the IC50 in assay [1] was found to be 0.6 µM.
Turning to `O=C(CCCn1ccc(=O)[nH]c1=O)N1CCC[C@H]1C(O)(c1cccc(Cl)c1)c1cccc(Cl)c1`, the IC50 in assay [1] is 0.58 µM.
Consider `O=C(CCCn1ccc(=O)[nH]c1=O)N1CCC[C@H]1C(O)(c1ccc(Cl)cc1)c1ccc(Cl)cc1`, for which the IC50 in assay [1] is greater than 1 µM.
With `COc1ccccc1C(O)(c1ccccc1OC)[C@@H]1CCCN1C(=O)CCCn1ccc(=O)[nH]c1=O`, the IC50 in assay [1] is greater than 1 µM.
In the case of `COc1cccc(C(O)(c2cccc(OC)c2)[C@@H]2CCCN2C(=O)CCCn2ccc(=O)[nH]c2=O)c1`, in assay [1], the IC50 was greater than 1 µM.
Still for that read-out and setting: the same measure for `COc1ccc(C(O)(c2ccc(OC)cc2)[C@@H]2CCCN2C(=O)CCCn2ccc(=O)[nH]c2=O)cc1`: greater than 1 µM.
`O=C(CCCn1ccc(=O)[nH]c1=O)N1CCC[C@H]1C(O)(c1cccc(-c2ccsc2)c1)c1cccc(-c2ccsc2)c1` had an IC50 in assay [1] of 0.23 µM.
Same read-out and setting: in the case of `O=C(CCCn1ccc(=O)[nH]c1=O)N1CCC[C@H]1C(c1ccccc1)c1ccccc1` it was 0.15 µM.
In turn, `O=C(CCn1ccc(=O)[nH]c1=O)N1CCC[C@H]1C(O)(c1ccccc1)c1ccccc1` registered an IC50 in assay [1] greater than 1 µM.
With `O=c1ccn(CCCS(=O)(=O)N2CCC[C@H]2C(O)(c2ccccc2)c2ccccc2)c(=O)[nH]1`, the IC50 in assay [1] is 9.4 µM.
Turning to `O=c1ccn(CCCS(=O)(=O)N2CCC[C@@H]2C(O)(c2cccc(F)c2)c2cccc(F)c2)c(=O)[nH]1`, in assay [1], the IC50 came out at 0.28 µM.
Compound `O=c1ccn(CCCS(=O)(=O)N2CCC[C@@H]2C(O)(c2ccc(F)cc2)c2ccc(F)cc2)c(=O)[nH]1` had an IC50 in assay [1] of 0.31 µM.
`COc1ccccc1C(O)(c1ccccc1OC)[C@H]1CCCN1S(=O)(=O)CCCn1ccc(=O)[nH]c1=O` gave an IC50 in assay [1] greater than 1 µM.
The same measure, in the same setting: in the case of `COc1cccc(C(O)(c2cccc(OC)c2)[C@H]2CCCN2S(=O)(=O)CCCn2ccc(=O)[nH]c2=O)c1` it was greater than 1 µM.

For orientation: IC50 means the point on the concentration scale where inhibition reaches its midpoint. Usually Ki stands for a measure of affinity in units of concentration, obtained from inhibition or displacement. Usually EC50 stands for the concentration needed to bring the measured effect to its halfway point.
